Results taken from patent US10159663B2, “Substituted macrocycles useful as kinases inhibitors and methods of use thereof” (TELIGENE LTD., priority 2014, dated 2018).
Values after ≈ are worked out from the molar mass of the structure shown. Where two headings read alike, the source gives them in different places.

Legend:
[1] = target: T1, CYP 3A4 (Homo sapiens, UniProt P08684); assay: P450 3A4 assay in human liver microsomes; format: in vitro ADME; details: for IC50: probe substrate testosterone
T1 construct: Incubation mixtures in duplicate contain pooled human liver microsome (0.1 mg/mL); from tissue; host or cells: pooled human liver microsomes
Description: The final concentrations of DMSO and acetonitrile were equal or less than 0.1%.
The column temperature was maintained at ambient temperature (25° C.). […] The flow rate was maintained at 0.6 mL/min.

[2] = Solubility measurement (HPLC); format: physicochemical; details: for solubility at 30 min: aqueous buffer, thermodynamic from solid, 25° C.
Description: The compound was diluted with acetonitrile to 100 mL.
The solution was shook for 2 minutes and left for 30 minutes at 25° C. After standing for 30 minutes, precipitate was formed in the bottom of the EP. The solutions was filtered through 0.2 μm membrane filter, and then diluted by 50 times with water.
The standard and sample solutions were injected into the HPLC on a Shim-Pack CLC-ODS C18 column (150 mm×6.0 mm, 5 um) with the same volume. The mobile phase consisted of acetonitrile with 2% trichloromethane-20 mM KH2PO4 buffer (pH=7.0) at a flow rate of 1 mL/minutes (40:60). The detection wavelength is at 264 nm. Calculation: solubility of sample=the concentration of standard×Area of sample×50/Area of standard.

[3] = target: T2, ERBB4 (Homo sapiens, UniProt Q15303); assay: In vitro kinase assay (kinase-tagged phage, affinity beads, qPCR); format: binding; details: Table A
T2 construct: made in house; host or cells: E. coli BL21-derived host (T7 phage) or HEK-293 cells
Description: (§1) An In Vitro Assay which Determines the Ability of a Test Compound to Inhibit Kinase:
(§2) Kinase-tagged T7 phage strains were prepared in an E. coli host derived from the BL21 strain. E. coli were grown to log-phase and infected with T7 phage and incubated with shaking at 32° C. until lysis. The lysates were centrifuged and filtered to remove cell debris. The remaining kinases were produced in HEK-293 cells and subsequently tagged with DNA for qPCR detection. Streptavidin-coated magnetic beads were treated with biotinylated small molecule ligands for 30 minutes at room temperature to generate affinity resins for kinase assays. The liganded beads were blocked with excess biotin and washed with blocking buffer (SeaBlock (Pierce), 1% BSA, 0.05% Tween 20, 1 mM DTT) to remove unbound ligand and to reduce non-specific binding. […] All reactions were performed in polystyrene 96-well plates in a final volume of 0.135 ml. […] The kinase concentration in the eluates was measured by qPCR.

[4] = target: T3, EGFR(L747-E749del, A750P) (Homo sapiens, UniProt P00533, A750P/DEL747-749); assay: as above; format: binding
T3 construct: made in house; host or cells: E. coli BL21-derived host (T7 phage) or HEK-293 cells
Description: as §1, §2

[5] = Rate of metabolism in rat whole blood; format: in vitro ADME; details: for rate of metabolism (k) in Rat whole blood: 1.0 μM, 37° C., 0-2 h
Description: A Representative Number of Compounds were Tested in Rat Whole Blood to Measure Rate of Metabolism.
Preparation of Stock Solutions: Stock solution of test compound was provided in 100% DMSO. The stock solution for each compound was diluted into 500 μM with a mixture of acetonitrile: PBS buffer (2:8) and then diluted into rat blood (pH 7.4) to achieve a final concentration of 1.0 μM.
Incubation: 1.0 μM of test compound in duplicate was incubated in blood at 37° C. Aliquots of 50 μL sample were collected at 0 h, 0.25 h, 0.5 h, 1 h, and 2 h.
Sample preparation: Reactions were terminated at various time points (0, 0.25, 0.5, 1, 2 h) by adding 150 μL of ice-cold acetonitrile containing an internal standard. Centrifuge the plate (4000 rpm, 15 min). 100 μL of supernatants were transferred into a daughter plate containing 200 μL of H2O and 0.1% formic acid (v/v) in each well. The samples were analyzed with UPLC-MS/MS.
Data analysis: The peak area ratio of test compound to internal standard is plotted as a percentage of the relevant zero time point control (% Remained) for each reaction. The rate of metabolism (k) is the slope of the linear regression from log percentage remaining versus incubation time. The T½ is calculated as −0.693/k.

[6] = test system: HCC827 Cell; assay: Cell proliferation assay (MTT); format: cell-based; details: Homo sapiens, 72 hours treatment
Description: (§3) A Representative Number of Compounds were Assayed Against Different Cancer Cell Lines Such as HCC827 and NCI-H69 Using the Cell Proliferation Assays:
(§4) Cell Proliferation Assays:
(§5) 1. 5×10^3 cells per well in 100 μl of medium were seeded in 96-well plate, while the medium here contained 5% FBS.
(§6) 2. 24 hours later, 100 μl fresh medium was added with various concentrations of compounds into each well, while the medium here was free of FBS.
(§7) 3. After the cells were treated with compounds for 72 hours, 20 μl MTT (5 mg/ml) was added into each well, and then the assay plate was incubated at 37° C. for 4 more hours.
(§8) 4. The assay plate was centrifuged at 800 g for 10 min. The medium was aspirated, 150 μl DMSO was added into each well. The plate was gently shaken for 10 min.
(§9) 5. The absorbance at 570 nm was measured on the plate reader.

[7] = test system: NCI-H69 Cell; assay: Cell proliferation assay (MTT); format: cell-based; details: Homo sapiens, 72 hours treatment
Description: as §3, §4, §5, §6, §7, §8, §9

[8] = pH 7.0 buffer solution (20 mM), pH 7.0 buffer (20 mM), read-out: Solubility at pH 7.0
[9] = pH 10.0 buffer solution (20 mM), pH 10.0 buffer (20 mM), read-out: Solubility at pH 10.0

T1 sequence (P08684 whole entry): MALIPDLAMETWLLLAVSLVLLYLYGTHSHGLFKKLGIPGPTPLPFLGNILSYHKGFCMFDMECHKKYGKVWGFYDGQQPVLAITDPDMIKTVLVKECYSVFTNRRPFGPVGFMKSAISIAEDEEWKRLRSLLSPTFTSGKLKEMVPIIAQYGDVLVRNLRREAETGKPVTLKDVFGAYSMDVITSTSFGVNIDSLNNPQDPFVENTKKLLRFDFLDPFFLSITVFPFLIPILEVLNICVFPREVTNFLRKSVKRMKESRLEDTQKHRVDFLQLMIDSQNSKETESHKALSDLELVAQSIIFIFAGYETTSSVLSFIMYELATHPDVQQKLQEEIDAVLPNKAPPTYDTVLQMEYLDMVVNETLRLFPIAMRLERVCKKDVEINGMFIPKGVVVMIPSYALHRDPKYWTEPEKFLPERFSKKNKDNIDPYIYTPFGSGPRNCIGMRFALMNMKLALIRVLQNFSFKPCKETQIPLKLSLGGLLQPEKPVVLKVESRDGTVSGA
T3 sequence (P00533 with tags, fused parts or gaps DEL747-749/A750P): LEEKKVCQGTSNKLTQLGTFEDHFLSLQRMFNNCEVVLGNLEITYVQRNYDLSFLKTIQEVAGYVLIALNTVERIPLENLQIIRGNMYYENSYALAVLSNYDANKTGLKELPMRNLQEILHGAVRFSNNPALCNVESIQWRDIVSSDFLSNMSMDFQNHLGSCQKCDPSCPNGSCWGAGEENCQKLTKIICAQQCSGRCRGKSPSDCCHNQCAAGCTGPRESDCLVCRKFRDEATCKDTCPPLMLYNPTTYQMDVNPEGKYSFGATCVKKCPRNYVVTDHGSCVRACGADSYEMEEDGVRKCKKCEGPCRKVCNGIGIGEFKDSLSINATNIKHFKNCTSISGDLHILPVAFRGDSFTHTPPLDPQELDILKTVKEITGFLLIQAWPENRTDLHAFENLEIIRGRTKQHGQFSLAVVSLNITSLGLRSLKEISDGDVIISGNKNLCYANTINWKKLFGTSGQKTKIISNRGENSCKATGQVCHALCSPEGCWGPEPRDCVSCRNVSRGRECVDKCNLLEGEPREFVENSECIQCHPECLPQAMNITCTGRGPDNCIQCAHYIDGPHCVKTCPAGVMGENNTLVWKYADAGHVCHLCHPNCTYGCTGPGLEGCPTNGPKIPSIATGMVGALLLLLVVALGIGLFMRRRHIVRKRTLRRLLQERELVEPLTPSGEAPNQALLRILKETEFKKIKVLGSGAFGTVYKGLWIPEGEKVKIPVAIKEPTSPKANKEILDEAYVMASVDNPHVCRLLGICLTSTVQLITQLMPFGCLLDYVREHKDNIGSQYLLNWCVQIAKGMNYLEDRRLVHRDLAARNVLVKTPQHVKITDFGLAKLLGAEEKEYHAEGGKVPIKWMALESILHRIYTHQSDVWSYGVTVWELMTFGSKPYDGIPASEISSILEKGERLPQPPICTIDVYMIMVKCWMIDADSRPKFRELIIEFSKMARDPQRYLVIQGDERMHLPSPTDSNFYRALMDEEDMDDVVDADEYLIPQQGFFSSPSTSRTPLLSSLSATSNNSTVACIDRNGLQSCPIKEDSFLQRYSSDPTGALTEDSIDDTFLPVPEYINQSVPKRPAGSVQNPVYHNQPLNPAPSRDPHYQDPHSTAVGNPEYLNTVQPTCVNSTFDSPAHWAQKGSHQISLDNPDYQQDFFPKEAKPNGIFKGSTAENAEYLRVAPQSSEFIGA
T2 sequence (Q15303 26-1308): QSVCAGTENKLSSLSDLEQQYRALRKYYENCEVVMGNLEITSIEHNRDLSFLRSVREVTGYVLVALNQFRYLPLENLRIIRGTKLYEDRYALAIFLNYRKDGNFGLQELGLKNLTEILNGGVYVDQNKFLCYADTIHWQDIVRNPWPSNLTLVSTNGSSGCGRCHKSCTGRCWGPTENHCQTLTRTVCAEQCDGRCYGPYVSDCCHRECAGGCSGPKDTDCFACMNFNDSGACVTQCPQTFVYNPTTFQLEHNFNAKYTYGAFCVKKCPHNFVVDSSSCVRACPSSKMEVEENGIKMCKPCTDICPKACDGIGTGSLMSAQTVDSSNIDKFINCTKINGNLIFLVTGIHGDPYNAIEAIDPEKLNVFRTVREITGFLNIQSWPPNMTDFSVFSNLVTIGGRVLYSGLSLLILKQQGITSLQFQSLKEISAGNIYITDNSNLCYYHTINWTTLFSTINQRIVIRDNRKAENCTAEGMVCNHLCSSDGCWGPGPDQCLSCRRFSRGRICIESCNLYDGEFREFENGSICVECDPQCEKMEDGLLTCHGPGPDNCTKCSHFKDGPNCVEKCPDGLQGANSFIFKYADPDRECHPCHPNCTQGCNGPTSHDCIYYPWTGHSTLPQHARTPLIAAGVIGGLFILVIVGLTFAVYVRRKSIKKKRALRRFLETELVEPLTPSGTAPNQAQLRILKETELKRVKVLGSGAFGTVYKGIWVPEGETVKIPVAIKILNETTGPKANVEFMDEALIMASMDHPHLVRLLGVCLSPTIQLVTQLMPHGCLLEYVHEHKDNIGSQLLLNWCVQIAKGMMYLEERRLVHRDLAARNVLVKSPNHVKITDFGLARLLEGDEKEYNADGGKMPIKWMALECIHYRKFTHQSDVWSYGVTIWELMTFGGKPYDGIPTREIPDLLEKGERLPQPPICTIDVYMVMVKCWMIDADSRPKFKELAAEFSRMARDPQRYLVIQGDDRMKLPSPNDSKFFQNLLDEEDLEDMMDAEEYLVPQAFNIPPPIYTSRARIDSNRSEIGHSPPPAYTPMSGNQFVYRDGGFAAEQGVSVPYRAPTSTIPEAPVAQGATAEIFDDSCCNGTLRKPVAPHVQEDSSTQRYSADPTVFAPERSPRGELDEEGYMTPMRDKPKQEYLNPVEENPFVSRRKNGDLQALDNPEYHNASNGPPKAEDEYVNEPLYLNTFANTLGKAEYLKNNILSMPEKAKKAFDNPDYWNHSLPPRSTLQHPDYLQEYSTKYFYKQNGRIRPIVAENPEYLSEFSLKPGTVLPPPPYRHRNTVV

rate of metabolism (k) in Rat whole blood [5] | Compound | IC50 [1] [µM] | solubility compared with compound A at pH=7.0 ([2]; pH 7.0, comparison in words) | solubility at 30 min [2, 8] [µg/mL] | solubility at 30 min [2, 9] [µg/mL] | Kinase Inhibition ERBB4 [3] [µM] | inhibitor potency for mutant EGFR (L747-E749del, A750P) [4] [nM] | Kinase Inhibition EGFR(L747-E749del, A750P) ([4]; mutant EGFR, Table A) [µM] | K value compared with PF-06463922 and Compound 10 ([5]; rat whole blood, comparison in words) | IC50 [6] [µM] | IC50 [7] [µM] | Cytochrome P450 3A4 inhibition (DDI risk class) [1]
0.07435 | CC(=O)Nc1ncc2cc1O[C@H](C)c1cc(F)ccc1C(=O)N(C)Cc1nn(C)c(C#N)c1-2 [Compound 10, (10R)-7-acetamido-12-fluoro-2,10,16-trimethyl-15-oxo-10,15,16,17-tetrahydro-2H-8,4-(metheno)pyrazolo[4,3-h][2,5,11]-benzoxadiazacyclotetradecine-3-carbonitrile] | 14 |  |  |  |  |  |  |  |  |  | 
−0.07473 | C[C@H]1Oc2cc(cnc2N)-c2c(nn(C)c2C#N)CN(C)C(=O)c2ccc(F)cc21 [Compound A, (10R)-7-amino-12-fluoro-2,10,16-trimethyl-15-oxo-10,15,16,17-tetrahydro-2H-8,4-(metheno)pyrazolo[4,3-h][2,5,11]-benzoxadiazacyclotetradecine-3-carbonitrile, reference compound] |  |  | 29 (≈ 71.4 µM) | 28 (≈ 68.9 µM) |  |  |  |  |  |  | moderate (3 μM<IC50<10 μM CYP inhibition moderate)

Compound | rate of metabolism (k) in Rat whole blood [5] | IC50 [1] [µM] | solubility compared with compound A at pH=7.0 ([2]; pH 7.0, comparison in words) | solubility at 30 min [2, 8] [µg/mL] | solubility at 30 min [2, 9] [µg/mL] | Kinase Inhibition ERBB4 [3] [µM] | inhibitor potency for mutant EGFR (L747-E749del, A750P) [4] [nM] | Kinase Inhibition EGFR(L747-E749del, A750P) ([4]; mutant EGFR, Table A) [µM] | K value compared with PF-06463922 and Compound 10 ([5]; rat whole blood, comparison in words) | IC50 [6] [µM] | IC50 [7] [µM] | Cytochrome P450 3A4 inhibition (DDI risk class) [1]
C[C@H]1Oc2cc(cnc2NC(=O)CN)-c2c(nn(C)c2C#N)CN(C)C(=O)c2ccc(F)cc21 [Compound 6, (10R)-7-(2-aminoacetyl)amino-12-fluoro-2,10,16-trimethyl-15-oxo-10,15,16,17-tetrahydro-2H-8,4-(metheno)pyrazolo[4,3-h][2,5,11]-benzoxadiazacyclotetradecine-3-carbonitrile] | 0.6169 | 10 | much higher solubility | 91 (≈ 196 µM) | 36 (≈ 77.7 µM) | 5.7 | 420 | 0.4 | much larger K value | 65.6 | 77.1 | 
